Molecular target: T1, human IL-17AA (Homo sapiens, UniProt Q16552)
T1 construct: host or cells: HEK (human embryonic kidney) cells
T1 sequence (Q16552 24-155) 1: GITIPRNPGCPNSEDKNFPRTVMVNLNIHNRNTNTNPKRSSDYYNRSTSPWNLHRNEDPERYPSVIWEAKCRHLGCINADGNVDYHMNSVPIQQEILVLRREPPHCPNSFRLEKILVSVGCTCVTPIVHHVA
T1 sequence (Q16552 24-155) 2: T1 sequence (Q16552 24-155) 1
Experiment: IL-8 release assay in human epithelial keratinocytes adult (HEKa)
Format: cell-based
Details: HEKa cells; 3 ng/mL HEK-human IL-17AA + 10 ng/mL human TNFalpha; 68-72 hours; IL-8 by HTRF; read-out: Rel EC50 IL-8 release assay
Description: Example 8: IL-8 Release Assay in Human Epithelial Keratinocytes Adult (HEKa)
Keratinocytes were seeded at 3500 cells/well in 384-well ViewPlates (Perkin Elmer) in Epilife medium (Thermo Fisher) containing human keratinocyte growth supplement (HKGS) without hydrocortisone and incubated in a humid incubator at 37° C., 5% CO2, overnight. The following day growth medium was removed and 25 μl fresh Epilife medium was added. 75 nL test compound in100% DMSO was added into each well reserved for test compounds, by the use of acoustic pipetting. The remaining wells received an equal volume of DMSO only, as vehicle control, or terfenadine in DMSO, as a positive control for any cytotoxic compounds. Subsequently, another 25 μL Epilife medium was added to each well. Finally, wells containing test compounds and wells prepared to yield maximum stimulation received 25 μL of 9 ng/mL recombinant, human embryonic kidney cell (HEK)-derived human IL-17AA+30 ng/mL human TNF-alpha, in Epilife medium. Wells prepared to define 100% inhibition of IL-17 effects received 25 μL of 30 ng/mL human TNF-alpha alone, in Epilife medium. Final concentrations were 3 ng/mL HEK-human IL-17AA+10 ng/mL human TNFalpha (maximum stimulation) and 10 ng/mL human TNFalpha alone (100% inhibition, Emax), respectively. Cells were incubated for 68-72 hours in the incubator. IL-8 released from the cells was measured by the use of a commercial homogenous time-resolved fluorescence (HTRF) assay (CisBio). 2 μL cell culture supernatant was transferred to a 384-well Proxiplate. 5 μL HTRF reagent was added and the plates were incubated sealed in the dark for 3-22 hours at room temperature. Time-resolved fluorescence was read at 665 vs 620 nm, with excitation at 320 nm, and IL-8 levels were calculated as percent of controls. Reduction of the amount of secreted IL-8 indicates decreased IL-17 signaling. Concentration response curves were fitted by the use of a four-parameter logistic equation. Relative IC50 and Emax were reported from curves showing acceptable fit (r^2>0.9). Cytotoxicity was measured in the cell-containing Viewplates following addition of 7 μL PrestoBlue (Thermo Fisher) and incubation for 2.5-3 hours at room temperature, by measuring fluorescence at 615 nm (excitation at 535 nm). Fluorescence was directly proportional to the amount of metabolic activity. Reduction of fluorescence signal indicated cytotoxicity.
Compounds of the present invention were tested in the IL-8 release assay in human epithelial keratinocytes.

SMILES	EC50 [nM]
Cc1n[nH]c(C)c1-c1ccc(NC(=O)C(c2nnc(-c3ccnn3CC3CC3)[nH]2)C(C2CC2)C2CC2)cc1 (stereo not shown) [Example 45, 3,3-dicyclopropyl-2-[5-[2-(cyclopropylmethyl)pyrazol-3-yl]-4H-1,2,4-triazol-3-yl]-N-[4-(3,5-dimethyl-1H-pyrazol-4-yl)phenyl]propanamide]	22
Cc1n[nH]c(C)c1-c1ccc(NC(=O)C(c2ncc[nH]2)C(C2CC2)C2CC2)cc1 (stereo not shown) [Example 6, 3,3-dicyclopropyl-N-[4-(3,5-dimethyl-1H-pyrazol-4-yl)phenyl]-2-(1H-imidazol-2-yl)propanamide]	1300
Cc1n[nH]c(C)c1-c1ccc(NC(=O)C(c2nc(-c3ccccc3)c[nH]2)C(C2CC2)C2CC2)cc1 (stereo not shown) [Example 2, 3,3-dicyclopropyl-N-[4-(3,5-dimethyl-1H-pyrazol-4-yl)phenyl]-2-(4-phenyl-1H-imidazol-2-yl)propanamide]	310
Cc1n[nH]c(C)c1-c1ccc(NC(=O)C(c2nc(F)c(-c3ccccc3)[nH]2)C(C2CC2)C2CC2)cc1 (stereo not shown) [Example 72, 3,3-dicyclopropyl-N-[4-(3,5-dimethyl-1H-pyrazol-4-yl)phenyl]-2-(4-fluoro-5-phenyl-1H-imidazol-2-yl)propanamide]	260
Cc1cncc(-c2nnc(C(C(=O)Nc3ccc(-c4c(C)n[nH]c4C)cc3)C(C3CC3)C3CC3)[nH]2)c1 (stereo not shown) [Example 50, 3,3-dicyclopropyl-N-[4-(3,5-dimethyl-1H-pyrazol-4-yl)phenyl]-2-[5-(5-methyl-3-pyridyl)-4H-1,2,4-triazol-3-yl]propanamide]	110
Cc1n[nH]c(C)c1-c1ccc(NC(=O)C(c2nnc(-c3cnnn3C)[nH]2)C(C2CC2)C2CC2)cc1 (stereo not shown) [Example 40, 3,3-dicyclopropyl-N-[4-(3,5-dimethyl-1H-pyrazol-4-yl)phenyl]-2-[5-(3-methyltriazol-4-yl)-4H-1,2,4-triazol-3-yl]propanamide]	860
Cc1cc(-c2nnc(C(C(=O)Nc3ccc(-c4c(C)n[nH]c4C)cc3)C(C3CC3)C3CC3)[nH]2)n(C)n1 (stereo not shown) [Example 47, 3,3-dicyclopropyl-N-[4-(3,5-dimethyl-1H-pyrazol-4-yl)phenyl]-2-[5-(2,5-dimethylpyrazol-3-yl)-4H-1,2,4-triazol-3-yl]propanamide]	83
Cc1n[nH]c(C)c1-c1ccc(NC(=O)C(c2nnc(-c3cnn(C)c3)[nH]2)C(C2CC2)C2CC2)cc1 (stereo not shown) [Example 20, 3,3-dicyclopropyl-N-[4-(3,5-dimethyl-1H-pyrazol-4-yl)phenyl]-2-[5-(1-methylpyrazol-4-yl)-4H-1,2,4-triazol-3-yl]propanamide]	990
Cc1n[nH]c(C)c1-c1ccc(NC(=O)C(c2nnc(-c3ccn(C)c(=O)c3)[nH]2)C(C2CC2)C2CC2)cc1 (stereo not shown) [Example 22, 3,3-dicyclopropyl-N-[4-(3,5-dimethyl-1H-pyrazol-4-yl)phenyl]-2-[5-(1-methyl-2-oxo-4-pyridyl)-4H-1,2,4-triazol-3-yl]propanamide]	430
Cc1n[nH]c(C)c1-c1ccc(NC(=O)C(c2nnc(-c3cnn(C(C)C)c3)[nH]2)C(C2CC2)C2CC2)cc1 (stereo not shown) [Example 30, 3,3-dicyclopropyl-N-[4-(3,5-dimethyl-1H-pyrazol-4-yl)phenyl]-2-[5-(1-isopropylpyrazol-4-yl)-4H-1,2,4-triazol-3-yl]propanamide]	270
Cc1n[nH]c(C)c1-c1ccc(NC(=O)C(c2nnc(-c3ccnn3C(C)C)[nH]2)C(C2CC2)C2CC2)nc1F (stereo not shown) [Example 11, 3,3-dicyclopropyl-N-[5-(3,5-dimethyl-1H-pyrazol-4-yl)-6-fluoro-2-pyridyl]-2-[5-(2-isopropylpyrazol-3-yl)-4H-1,2,4-triazol-3-yl]propanamide]	93
CCn1nccc1-c1cnc(C(C(=O)Nc2ccc(-c3c(C)n[nH]c3C)cc2)C(C2CC2)C2CC2)[nH]1 (stereo not shown) [Example 67, 3,3-dicyclopropyl-N-[4-(3,5-dimethyl-1H-pyrazol-4-yl)phenyl]-2-[5-(2-ethylpyrazol-3-yl)-1H-imidazol-2-yl]propanamide]	210
Cc1ncccc1-c1nnc(C(C(=O)Nc2ccc(-c3c(C)n[nH]c3C)cc2)C(C2CC2)C2CC2)[nH]1 (stereo not shown) [Example 52, 3,3-dicyclopropyl-N-[4-(3,5-dimethyl-1H-pyrazol-4-yl)phenyl]-2-[5-(2-methyl-3-pyridyl)-4H-1,2,4-triazol-3-yl]propanamide]	180
Cc1cc(-c2nnc(C(C(=O)Nc3ccc(-c4c(C)n[nH]c4C)cc3)C(C3CC3)C3CC3)[nH]2)ccn1 (stereo not shown) [Example 28, 3,3-dicyclopropyl-N-[4-(3,5-dimethyl-1H-pyrazol-4-yl)phenyl]-2-[5-(2-methyl-4-pyridyl)-4H-1,2,4-triazol-3-yl]propanamide]	140
Cc1n[nH]c(C)c1-c1ccc(NC(=O)C(c2nnc(-c3ccn[nH]3)[nH]2)C(C2CC2)C2CC2)cc1 (stereo not shown) [Example 24, 3,3-dicyclopropyl-N-[4-(3,5-dimethyl-1H-pyrazol-4-yl)phenyl]-2-[5-(1H-pyrazol-5-yl)-4H-1,2,4-triazol-3-yl]propanamide]	690
Cc1n[nH]c(C)c1-c1ccc(NC(=O)C(c2nnc(-c3ccnn3C3CC3)[nH]2)C(C2CC2)C2CC2)cc1 (stereo not shown) [Example 44, 3,3-dicyclopropyl-2-[5-(2-cyclopropylpyrazol-3-yl)-4H-1,2,4-triazol-3-yl]-N-[4-(3,5-dimethyl-1H-pyrazol-4-yl)phenyl]propanamide]	77
Cc1n[nH]c(C)c1-c1ccc(NC(=O)C(c2nnc(-c3ccccc3Cl)[nH]2)C(C2CC2)C2CC2)cc1 (stereo not shown) [Example 18, 2-[5-(2-chlorophenyl)-4H-1,2,4-triazol-3-yl]-3,3-dicyclopropyl-N-[4-(3,5-dimethyl-1H-pyrazol-4-yl)phenyl]propanamide]	310
Cc1n[nH]c(C)c1-c1ccc(NC(=O)C(c2nnc(-c3ccnn3C)[nH]2)C(C2CC2)C2CC2)cc1 (stereo not shown) [Example 21, 3,3-dicyclopropyl-N-[4-(3,5-dimethyl-1H-pyrazol-4-yl)phenyl]-2-[5-(2-methylpyrazol-3-yl)-4H-1,2,4-triazol-3-yl]propanamide]	200
Cc1n[nH]c(C)c1-c1ccc(NC(=O)C(c2nnc(C3CCOCC3)[nH]2)C(C2CC2)C2CC2)cc1 (stereo not shown) [Example 61, 3,3-dicyclopropyl-N-[4-(3,5-dimethyl-1H-pyrazol-4-yl)phenyl]-2-(5-tetrahydropyran-4-yl-4H-1,2,4-triazol-3-yl)propanamide]	2700
Cc1n[nH]c(C)c1-c1ccc(NC(=O)C(c2nnc(-c3c(C)noc3C)[nH]2)C(C2CC2)C2CC2)cc1 (stereo not shown) [Example 32, 3,3-dicyclopropyl-2-[5-(3,5-dimethylisoxazol-4-yl)-4H-1,2,4-triazol-3-yl]-N-[4-(3,5-dimethyl-1H-pyrazol-4-yl)phenyl]propanamide]	910
Cc1cnn(C)c1-c1nnc(C(C(=O)Nc2ccc(-c3c(C)n[nH]c3C)cc2)C(C2CC2)C2CC2)[nH]1 (stereo not shown) [Example 37, 3,3-dicyclopropyl-N-[4-(3,5-dimethyl-1H-pyrazol-4-yl)phenyl]-2-[5-(2,4-dimethylpyrazol-3-yl)-4H-1,2,4-triazol-3-yl]propanamide]	380
Cc1n[nH]c(C)c1-c1ccc(NC(=O)C(c2nnc(-c3ccnn3C(C)C)[nH]2)C(C2CC2)C2CC2)cc1 (stereo not shown) [Example 43, 3,3-dicyclopropyl-N-[4-(3,5-dimethyl-1H-pyrazol-4-yl)phenyl]-2-[5-(2-isopropylpyrazol-3-yl)-4H-1,2,4-triazol-3-yl]propanamide]	66
Cc1cccc(-c2nnc(C(C(=O)Nc3ccc(-c4c(C)n[nH]c4C)cc3)C(C3CC3)C3CC3)[nH]2)n1 (stereo not shown) [Example 59, 3,3-dicyclopropyl-N-[4-(3,5-dimethyl-1H-pyrazol-4-yl)phenyl]-2-[5-(6-methyl-2-pyridyl)-4H-1,2,4-triazol-3-yl]propanamide]	45
Cc1n[nH]c(C)c1-c1ccc(NC(=O)C(c2nnc(-c3ccccc3)[nH]2)C(C2CC2)C2CC2)cc1 (stereo not shown) [Example 1, 3,3-dicyclopropyl-N-[4-(3,5-dimethyl-1H-pyrazol-4-yl)phenyl]-2-(5-phenyl-4H-1,2,4-triazol-3-yl)propanamide]	290
Cc1ccncc1-c1nnc(C(C(=O)Nc2ccc(-c3c(C)n[nH]c3C)cc2)C(C2CC2)C2CC2)[nH]1 (stereo not shown) [Example 53, 3,3-dicyclopropyl-N-[4-(3,5-dimethyl-1H-pyrazol-4-yl)phenyl]-2-[5-(4-methyl-3-pyridyl)-4H-1,2,4-triazol-3-yl]propanamide]	73
